One molecule from PMC2865140 (Microbiology (Reading, England), 2009) can be followed below.

By IC50 is commonly meant the concentration that inhibits the measured activity by half. Low readings indicate higher potency, high ones lower potency.

The target in experiment [1] is T1, AccD6 (carboxyltransferase beta subunit of ACCase 6) (Mycobacterium tuberculosis, UniProt P9WQH5).
T1 sequence (P9WQH5 1-473): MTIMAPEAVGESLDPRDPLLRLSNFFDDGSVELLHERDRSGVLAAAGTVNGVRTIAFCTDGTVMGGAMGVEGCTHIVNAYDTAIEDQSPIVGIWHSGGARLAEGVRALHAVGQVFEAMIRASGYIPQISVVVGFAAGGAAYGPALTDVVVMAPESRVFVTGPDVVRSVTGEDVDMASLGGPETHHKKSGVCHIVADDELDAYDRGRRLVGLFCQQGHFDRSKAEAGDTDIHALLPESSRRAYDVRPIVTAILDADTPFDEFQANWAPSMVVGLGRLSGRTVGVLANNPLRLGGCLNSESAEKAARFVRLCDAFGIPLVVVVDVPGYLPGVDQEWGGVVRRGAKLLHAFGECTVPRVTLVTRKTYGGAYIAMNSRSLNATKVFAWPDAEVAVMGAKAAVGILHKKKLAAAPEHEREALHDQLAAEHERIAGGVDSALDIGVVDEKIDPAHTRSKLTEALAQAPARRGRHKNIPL
T1 sequence (P9WPQ3 1-654 partner): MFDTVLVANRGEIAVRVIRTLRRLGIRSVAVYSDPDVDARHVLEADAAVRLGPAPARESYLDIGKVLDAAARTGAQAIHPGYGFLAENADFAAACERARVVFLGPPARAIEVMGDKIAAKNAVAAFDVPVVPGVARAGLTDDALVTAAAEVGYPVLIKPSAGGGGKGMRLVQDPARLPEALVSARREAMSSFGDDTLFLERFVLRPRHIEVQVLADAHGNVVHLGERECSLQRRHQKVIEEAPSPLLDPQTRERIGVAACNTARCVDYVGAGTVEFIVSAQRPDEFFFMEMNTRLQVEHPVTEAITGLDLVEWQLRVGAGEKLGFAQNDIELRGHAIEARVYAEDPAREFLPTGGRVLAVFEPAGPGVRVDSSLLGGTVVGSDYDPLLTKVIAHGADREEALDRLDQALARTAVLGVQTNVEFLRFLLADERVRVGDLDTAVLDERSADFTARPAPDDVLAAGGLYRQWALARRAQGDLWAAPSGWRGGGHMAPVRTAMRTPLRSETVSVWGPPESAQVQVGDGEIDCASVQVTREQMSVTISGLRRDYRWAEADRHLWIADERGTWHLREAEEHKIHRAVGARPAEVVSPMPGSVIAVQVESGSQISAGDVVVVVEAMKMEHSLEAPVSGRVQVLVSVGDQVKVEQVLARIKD
In kind it is biochemical.

The target in experiment [2] is AccD5 (carboxyltransferase beta subunit of ACCase 5) (Mycobacterium tuberculosis, UniProt P9WQH7). It is filed as biochemical.
Sequence of AccD5 (carboxyltransferase beta subunit of ACCase 5) (P96890 2-600): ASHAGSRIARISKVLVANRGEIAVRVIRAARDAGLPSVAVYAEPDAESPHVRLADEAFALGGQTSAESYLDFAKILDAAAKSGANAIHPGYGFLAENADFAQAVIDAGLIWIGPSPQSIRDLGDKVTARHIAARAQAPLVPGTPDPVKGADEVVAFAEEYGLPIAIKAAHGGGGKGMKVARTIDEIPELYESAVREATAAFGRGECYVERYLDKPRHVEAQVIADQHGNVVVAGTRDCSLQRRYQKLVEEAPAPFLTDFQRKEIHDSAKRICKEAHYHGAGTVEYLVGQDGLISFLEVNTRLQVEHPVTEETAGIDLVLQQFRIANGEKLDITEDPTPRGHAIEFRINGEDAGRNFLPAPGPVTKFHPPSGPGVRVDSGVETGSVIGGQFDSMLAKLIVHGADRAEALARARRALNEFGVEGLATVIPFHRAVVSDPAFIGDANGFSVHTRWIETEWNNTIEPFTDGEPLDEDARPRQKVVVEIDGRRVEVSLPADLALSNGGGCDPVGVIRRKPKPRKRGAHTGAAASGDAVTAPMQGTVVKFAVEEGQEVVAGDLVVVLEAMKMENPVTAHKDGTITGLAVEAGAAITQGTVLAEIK
Sequence of AccD5 (carboxyltransferase beta subunit of ACCase 5) (P96886 whole entry, further chain): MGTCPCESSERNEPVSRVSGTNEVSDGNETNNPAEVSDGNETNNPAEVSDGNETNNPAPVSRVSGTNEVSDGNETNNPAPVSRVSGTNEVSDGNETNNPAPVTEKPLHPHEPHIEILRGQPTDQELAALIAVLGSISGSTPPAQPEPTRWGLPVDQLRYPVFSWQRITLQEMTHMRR
Sequence of AccD5 (carboxyltransferase beta subunit of ACCase 5) (P9WQH7 whole entry): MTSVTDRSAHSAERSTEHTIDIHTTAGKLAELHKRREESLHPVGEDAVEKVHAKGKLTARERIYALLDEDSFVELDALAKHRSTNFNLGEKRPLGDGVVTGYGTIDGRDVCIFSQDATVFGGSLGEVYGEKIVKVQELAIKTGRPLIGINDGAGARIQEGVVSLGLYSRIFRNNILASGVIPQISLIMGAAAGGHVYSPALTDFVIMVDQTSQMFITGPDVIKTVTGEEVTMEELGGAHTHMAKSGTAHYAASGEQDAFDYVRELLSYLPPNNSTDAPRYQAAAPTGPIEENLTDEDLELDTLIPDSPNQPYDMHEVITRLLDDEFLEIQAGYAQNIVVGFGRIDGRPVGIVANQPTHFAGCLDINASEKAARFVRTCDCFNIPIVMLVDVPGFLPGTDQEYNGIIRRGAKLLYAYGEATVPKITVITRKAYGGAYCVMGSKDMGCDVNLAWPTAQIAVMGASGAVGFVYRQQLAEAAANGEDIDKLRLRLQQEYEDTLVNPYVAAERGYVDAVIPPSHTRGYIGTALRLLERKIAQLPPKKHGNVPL

For `Oc1c(Cl)cc(C(c2cc(Cl)c(O)c(Cl)c2)C(c2cc(Cl)c(O)c(Cl)c2)c2cc(Cl)c(O)c(Cl)c2)cc1Cl` [NCI-172033], the half-inhibitory concentration (IC50) in experiment [1] is around 8 µM; in experiment [2] it was 78 µM.
